From ChEMBL document CHEMBL1152560, “Substituted 2-arylbenzothiazoles as kinase inhibitors: hit-to-lead optimization” (Bioorg Med Chem, 2009)

Legend:
[1] = target: Serine/threonine-protein kinase PAK 6 (Homo sapiens) (UniProt Q9NQU5); test: Residual activity of PAK6 at 1 uM by microplate scintillation counting
[2] = target: Dual specificity tyrosine-phosphorylation-regulated kinase 1B (Homo sapiens) (UniProt Q9Y463); test: Residual activity of DYRK1B at 1 uM by microplate scintillation counting
[3] = target: Serine/threonine-protein kinase Chk2 (Homo sapiens) (UniProt O96017); test: Residual activity of CHK2 at 0.1 uM by microplate scintillation counting
[4] = target: Serine/threonine-protein kinase PAK 5 (Homo sapiens) (UniProt Q9P286); test: Residual activity of PAK7 at 10 uM by microplate scintillation counting
[5] = target: T1, Cytoplasmic tyrosine-protein kinase BMX (Homo sapiens) (UniProt P51813); test: Residual activity of BMX at 1 uM by microplate scintillation counting
T1 sequence (whole entry): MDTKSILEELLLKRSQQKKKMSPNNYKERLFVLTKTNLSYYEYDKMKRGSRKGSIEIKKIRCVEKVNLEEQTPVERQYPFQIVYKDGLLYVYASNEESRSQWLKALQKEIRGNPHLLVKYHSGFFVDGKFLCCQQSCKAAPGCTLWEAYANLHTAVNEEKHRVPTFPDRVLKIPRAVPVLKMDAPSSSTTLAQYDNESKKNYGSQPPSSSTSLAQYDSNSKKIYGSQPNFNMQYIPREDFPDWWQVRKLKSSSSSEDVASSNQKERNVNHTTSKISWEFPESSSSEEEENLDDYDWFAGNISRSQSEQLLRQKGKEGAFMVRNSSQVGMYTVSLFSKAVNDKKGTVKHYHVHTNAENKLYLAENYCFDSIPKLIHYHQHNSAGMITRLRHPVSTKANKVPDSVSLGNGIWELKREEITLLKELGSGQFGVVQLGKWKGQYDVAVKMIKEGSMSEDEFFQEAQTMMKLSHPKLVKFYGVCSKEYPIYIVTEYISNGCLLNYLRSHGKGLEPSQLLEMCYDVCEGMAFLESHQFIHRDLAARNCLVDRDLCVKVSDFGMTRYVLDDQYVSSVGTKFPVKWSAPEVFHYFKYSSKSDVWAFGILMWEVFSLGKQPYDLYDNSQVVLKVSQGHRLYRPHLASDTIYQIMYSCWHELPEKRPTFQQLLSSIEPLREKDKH

[6] = target: Protein kinase C delta type (Homo sapiens) (UniProt Q05655); test: Residual activity of PKCdelta at 10 uM by microplate scintillation counting
[7] = Residual activity of PKA at 0.1 uM by microplate scintillation counting
[8] = target: T2, Serine/threonine-protein kinase Sgk1 (Homo sapiens) (UniProt O00141); test: Residual activity of SGK1 at 1 uM by microplate scintillation counting
T2 sequence (whole entry): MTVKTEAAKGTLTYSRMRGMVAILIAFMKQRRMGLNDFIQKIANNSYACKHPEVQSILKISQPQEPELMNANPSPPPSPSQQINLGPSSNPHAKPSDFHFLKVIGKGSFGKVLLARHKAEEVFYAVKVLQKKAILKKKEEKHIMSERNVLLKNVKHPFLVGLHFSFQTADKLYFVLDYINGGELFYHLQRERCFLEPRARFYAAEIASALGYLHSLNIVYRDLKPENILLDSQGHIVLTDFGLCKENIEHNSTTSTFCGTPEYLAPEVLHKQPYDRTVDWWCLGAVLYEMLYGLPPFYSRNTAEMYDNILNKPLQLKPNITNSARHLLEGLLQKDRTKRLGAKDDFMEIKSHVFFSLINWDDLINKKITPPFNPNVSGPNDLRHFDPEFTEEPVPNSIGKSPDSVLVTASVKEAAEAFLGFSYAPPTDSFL

[9] = target: Serine/threonine-protein kinase 16 (Homo sapiens) (UniProt O75716); test: Residual activity of TSF1 at 0.1 uM by microplate scintillation counting
[10] = target: Casein kinase II subunit alpha' (Homo sapiens) (UniProt P19784); test: Residual activity of CK2alpha2 at 10 uM by microplate scintillation counting
[11] = target: T3, Beta-adrenergic receptor kinase 1 (Homo sapiens) (UniProt P25098); test: Residual activity of GRK2 at 0.1 uM by microplate scintillation counting
T3 sequence (whole entry): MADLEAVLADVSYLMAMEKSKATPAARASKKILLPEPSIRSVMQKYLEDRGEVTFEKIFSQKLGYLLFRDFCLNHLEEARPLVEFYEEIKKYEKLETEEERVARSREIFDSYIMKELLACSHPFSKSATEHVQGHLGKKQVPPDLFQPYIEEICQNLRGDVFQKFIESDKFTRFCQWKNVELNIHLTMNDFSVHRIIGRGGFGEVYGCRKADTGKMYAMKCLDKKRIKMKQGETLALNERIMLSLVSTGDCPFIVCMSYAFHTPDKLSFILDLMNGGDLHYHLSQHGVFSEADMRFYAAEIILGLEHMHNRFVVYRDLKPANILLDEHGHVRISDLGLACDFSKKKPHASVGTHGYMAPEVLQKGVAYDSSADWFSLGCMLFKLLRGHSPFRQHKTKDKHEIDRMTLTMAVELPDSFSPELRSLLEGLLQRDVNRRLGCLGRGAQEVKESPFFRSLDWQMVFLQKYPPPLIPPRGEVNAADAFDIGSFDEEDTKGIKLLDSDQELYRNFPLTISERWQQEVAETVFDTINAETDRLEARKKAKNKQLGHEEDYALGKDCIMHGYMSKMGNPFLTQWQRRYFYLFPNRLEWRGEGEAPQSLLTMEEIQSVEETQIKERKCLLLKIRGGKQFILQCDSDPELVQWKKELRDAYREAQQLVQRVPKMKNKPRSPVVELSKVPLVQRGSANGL

Chain of Protein kinase C delta type (Homo sapiens) (Q05655 whole entry, looked up): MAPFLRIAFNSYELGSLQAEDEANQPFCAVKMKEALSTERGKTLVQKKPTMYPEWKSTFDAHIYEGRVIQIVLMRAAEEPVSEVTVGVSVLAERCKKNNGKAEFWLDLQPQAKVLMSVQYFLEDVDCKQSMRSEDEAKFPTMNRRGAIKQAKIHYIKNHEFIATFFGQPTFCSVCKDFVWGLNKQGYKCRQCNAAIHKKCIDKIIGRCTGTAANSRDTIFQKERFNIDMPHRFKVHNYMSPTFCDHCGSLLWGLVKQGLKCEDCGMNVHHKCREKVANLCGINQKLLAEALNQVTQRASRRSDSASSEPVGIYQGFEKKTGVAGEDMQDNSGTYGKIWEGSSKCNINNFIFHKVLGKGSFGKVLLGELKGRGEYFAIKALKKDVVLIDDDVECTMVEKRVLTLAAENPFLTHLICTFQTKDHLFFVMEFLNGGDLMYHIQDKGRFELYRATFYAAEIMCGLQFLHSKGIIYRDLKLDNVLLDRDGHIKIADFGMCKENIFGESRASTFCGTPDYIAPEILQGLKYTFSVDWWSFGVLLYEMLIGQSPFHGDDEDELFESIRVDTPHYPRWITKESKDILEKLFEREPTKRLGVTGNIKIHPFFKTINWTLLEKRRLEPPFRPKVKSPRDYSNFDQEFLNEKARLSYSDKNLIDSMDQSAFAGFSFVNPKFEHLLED
Chain of Serine/threonine-protein kinase PAK 6 (Homo sapiens) (Q9NQU5 whole entry, looked up): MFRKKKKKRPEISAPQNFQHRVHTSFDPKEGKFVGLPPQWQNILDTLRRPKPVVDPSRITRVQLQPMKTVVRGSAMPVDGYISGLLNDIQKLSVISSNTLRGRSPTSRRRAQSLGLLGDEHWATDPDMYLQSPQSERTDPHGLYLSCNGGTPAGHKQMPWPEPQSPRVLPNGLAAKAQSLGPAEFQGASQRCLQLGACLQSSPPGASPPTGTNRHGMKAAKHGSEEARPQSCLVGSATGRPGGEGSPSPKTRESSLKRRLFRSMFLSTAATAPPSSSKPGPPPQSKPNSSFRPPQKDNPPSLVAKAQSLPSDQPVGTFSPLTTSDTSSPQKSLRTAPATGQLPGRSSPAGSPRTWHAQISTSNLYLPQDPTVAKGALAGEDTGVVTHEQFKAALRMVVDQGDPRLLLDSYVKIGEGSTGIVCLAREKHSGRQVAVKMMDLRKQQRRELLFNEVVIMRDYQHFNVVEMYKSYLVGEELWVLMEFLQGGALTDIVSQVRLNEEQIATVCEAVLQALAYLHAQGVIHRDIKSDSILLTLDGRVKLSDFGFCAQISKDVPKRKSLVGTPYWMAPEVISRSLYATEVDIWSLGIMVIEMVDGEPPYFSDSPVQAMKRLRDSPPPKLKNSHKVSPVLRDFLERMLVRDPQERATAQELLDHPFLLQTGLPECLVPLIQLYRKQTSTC
Chain of Serine/threonine-protein kinase PAK 5 (Homo sapiens) (Q9P286 whole entry, looked up): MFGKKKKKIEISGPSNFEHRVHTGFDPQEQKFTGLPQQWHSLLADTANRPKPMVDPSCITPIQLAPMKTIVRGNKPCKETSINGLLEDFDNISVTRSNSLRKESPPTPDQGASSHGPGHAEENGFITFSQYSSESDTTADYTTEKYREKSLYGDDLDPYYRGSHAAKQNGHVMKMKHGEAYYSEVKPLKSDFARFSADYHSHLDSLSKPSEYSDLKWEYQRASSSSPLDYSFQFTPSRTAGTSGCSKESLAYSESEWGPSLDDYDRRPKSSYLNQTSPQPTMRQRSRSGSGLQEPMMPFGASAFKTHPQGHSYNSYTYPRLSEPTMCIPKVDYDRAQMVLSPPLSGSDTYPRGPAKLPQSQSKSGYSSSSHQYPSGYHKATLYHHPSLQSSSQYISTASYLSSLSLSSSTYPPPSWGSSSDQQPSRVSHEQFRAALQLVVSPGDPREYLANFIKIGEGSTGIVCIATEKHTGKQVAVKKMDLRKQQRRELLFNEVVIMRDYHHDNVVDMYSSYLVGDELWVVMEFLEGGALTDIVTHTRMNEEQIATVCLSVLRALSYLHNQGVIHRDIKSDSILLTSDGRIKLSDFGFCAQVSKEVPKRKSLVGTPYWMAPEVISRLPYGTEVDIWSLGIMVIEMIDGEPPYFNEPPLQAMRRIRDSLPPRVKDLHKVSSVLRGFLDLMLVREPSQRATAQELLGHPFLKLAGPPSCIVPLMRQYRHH
Chain of Casein kinase II subunit alpha' (Homo sapiens) (P19784 whole entry, looked up): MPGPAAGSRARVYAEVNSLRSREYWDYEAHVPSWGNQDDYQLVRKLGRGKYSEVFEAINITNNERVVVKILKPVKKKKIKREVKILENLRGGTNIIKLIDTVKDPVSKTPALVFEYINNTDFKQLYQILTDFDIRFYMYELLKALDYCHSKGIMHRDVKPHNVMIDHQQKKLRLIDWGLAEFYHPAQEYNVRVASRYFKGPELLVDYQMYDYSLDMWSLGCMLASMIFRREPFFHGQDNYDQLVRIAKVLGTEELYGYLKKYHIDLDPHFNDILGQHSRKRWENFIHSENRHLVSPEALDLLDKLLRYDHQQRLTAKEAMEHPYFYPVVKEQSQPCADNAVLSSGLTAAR
Chain of Dual specificity tyrosine-phosphorylation-regulated kinase 1B (Homo sapiens) (Q9Y463 whole entry, looked up): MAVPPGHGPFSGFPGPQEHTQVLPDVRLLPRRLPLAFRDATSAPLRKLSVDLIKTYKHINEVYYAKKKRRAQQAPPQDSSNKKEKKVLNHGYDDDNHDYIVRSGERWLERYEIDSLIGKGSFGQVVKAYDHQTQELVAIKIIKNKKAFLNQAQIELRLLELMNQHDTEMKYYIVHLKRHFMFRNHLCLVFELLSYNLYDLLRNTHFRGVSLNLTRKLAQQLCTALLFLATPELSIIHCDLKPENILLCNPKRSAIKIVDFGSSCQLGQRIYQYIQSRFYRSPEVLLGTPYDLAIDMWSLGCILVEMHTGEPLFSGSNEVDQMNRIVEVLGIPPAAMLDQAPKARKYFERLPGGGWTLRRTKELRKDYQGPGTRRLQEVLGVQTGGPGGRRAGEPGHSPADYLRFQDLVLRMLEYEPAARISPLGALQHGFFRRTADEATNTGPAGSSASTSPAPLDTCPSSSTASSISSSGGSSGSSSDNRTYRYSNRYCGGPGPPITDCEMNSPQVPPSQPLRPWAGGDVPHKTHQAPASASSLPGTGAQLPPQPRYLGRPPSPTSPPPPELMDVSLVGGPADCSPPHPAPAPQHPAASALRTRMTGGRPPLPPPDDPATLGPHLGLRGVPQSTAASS
Chain of Serine/threonine-protein kinase Chk2 (Homo sapiens) (O96017 whole entry): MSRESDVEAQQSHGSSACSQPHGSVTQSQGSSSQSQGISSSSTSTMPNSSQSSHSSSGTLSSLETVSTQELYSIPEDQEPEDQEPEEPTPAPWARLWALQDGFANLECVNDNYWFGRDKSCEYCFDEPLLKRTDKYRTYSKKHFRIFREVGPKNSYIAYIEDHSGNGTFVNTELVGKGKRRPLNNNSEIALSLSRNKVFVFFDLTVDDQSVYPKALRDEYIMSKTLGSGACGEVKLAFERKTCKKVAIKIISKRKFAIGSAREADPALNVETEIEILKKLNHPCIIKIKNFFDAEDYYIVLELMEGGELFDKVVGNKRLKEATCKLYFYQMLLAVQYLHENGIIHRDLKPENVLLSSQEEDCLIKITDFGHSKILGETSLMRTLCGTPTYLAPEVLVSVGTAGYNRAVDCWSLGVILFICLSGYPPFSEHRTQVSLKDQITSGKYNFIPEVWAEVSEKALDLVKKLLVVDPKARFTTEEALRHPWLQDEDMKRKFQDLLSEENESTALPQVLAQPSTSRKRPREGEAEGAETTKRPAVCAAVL
Chain of Serine/threonine-protein kinase 16 (Homo sapiens) (O75716 whole entry): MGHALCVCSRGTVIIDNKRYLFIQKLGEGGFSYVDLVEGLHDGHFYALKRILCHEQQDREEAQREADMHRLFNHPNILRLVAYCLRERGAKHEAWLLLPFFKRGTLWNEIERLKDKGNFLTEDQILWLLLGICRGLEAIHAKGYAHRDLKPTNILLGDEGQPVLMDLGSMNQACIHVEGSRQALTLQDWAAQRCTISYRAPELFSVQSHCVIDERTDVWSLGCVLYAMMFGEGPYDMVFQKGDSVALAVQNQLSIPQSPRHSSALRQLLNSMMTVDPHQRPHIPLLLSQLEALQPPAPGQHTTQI

residual activity [1] [%]	residual activity [2] [%]	residual activity [3] [%]	residual activity [4] [%]	residual activity [5] [%]	residual activity [6] [%]	residual activity [7] [%]	residual activity [8] [%]	residual activity [9] [%]	residual activity [10] [%]	residual activity [11] [%]	Compound
109	98	88	84	127	72	95	99	93	97	95	COc1cc2c(Oc3ccc(-c4nc5ccccc5s4)cc3)ncnc2cc1OCCCN1CCCC1
90	95	92	49	128	86	98	96	102	116	89	COc1cc2c(Oc3ccc(-c4nc5ccccc5s4)cc3F)ncnc2cc1OCCCN1CCN(C)CC1
74	105	91	45	122	86	89	86	100	98	95	COc1cc2c(Oc3ccc(-c4nc5ccccc5s4)cc3)ncnc2cc1OCCCN1CCN(C)CC1
